Laboratory results: BindingDB's records for doi:10.1016/j.bmc.2011.04.011 (University of Toyama, 2011)

These compounds were tested against T1, Lysosomal acid glucosylceramidase (Bos taurus, UniProt Q2KHZ8) (assay: Inhibition of bovine liver beta-glucosidase assessed as production of 4-methylumbelliferone using 4-methylumbelliferyl beta-D-glucoside as substrate by spectrophotometry).
T1 sequence (Q2KHZ8 whole entry): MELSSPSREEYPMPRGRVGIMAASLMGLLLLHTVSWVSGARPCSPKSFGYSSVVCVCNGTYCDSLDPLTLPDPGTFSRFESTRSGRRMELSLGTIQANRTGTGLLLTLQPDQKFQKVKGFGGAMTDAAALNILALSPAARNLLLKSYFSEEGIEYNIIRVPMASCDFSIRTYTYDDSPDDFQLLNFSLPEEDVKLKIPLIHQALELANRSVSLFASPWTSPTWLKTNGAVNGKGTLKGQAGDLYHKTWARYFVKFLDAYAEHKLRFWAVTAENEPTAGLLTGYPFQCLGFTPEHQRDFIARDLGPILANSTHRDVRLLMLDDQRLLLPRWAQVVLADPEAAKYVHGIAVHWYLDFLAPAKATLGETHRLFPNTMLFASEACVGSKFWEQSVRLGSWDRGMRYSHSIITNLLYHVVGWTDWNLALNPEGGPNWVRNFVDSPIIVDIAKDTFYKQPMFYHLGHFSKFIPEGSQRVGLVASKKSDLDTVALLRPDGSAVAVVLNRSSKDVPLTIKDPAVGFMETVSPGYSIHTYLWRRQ

In order of falling IC50:
1. OC[C@@H]1CNC[C@H](O)[C@H]1O [L-Isofagomine]  611 µM
2. OC[C@H]1NCC[C@@H](O)[C@@H]1O [(2R,3R,4R)-2-Hydroxymethyl-piperidine-3,4-diol]  250 µM
3. OC[C@H]1CNC[C@@H](O)[C@@H]1O  31 µM
4. OC[C@H]1NCC[C@H](O)[C@@H]1O [3-epifagomine]  5.6 µM
